Results as given in patent publication US20230146096A1, “USE OF VIDOFLUDIMUS FOR THE TREATMENT OF CORONAVIRUS INFECTIONS” (INSERM (Institut National de la Santé et de la Recherche …, priority 2020, published 2023).
Read-outs that look alike come from different tables or passages of the source.

Tested on: SARS-CoV-2 strain BavPat1
Assay: Determination of EC50 and EC90: inhibition of SARS-CoV-2 viral RNA replication in Vero E6 cells (RT-qPCR)
Format: cell-based
Details: for EC50: Severe acute respiratory syndrome coronavirus 2, Vero C1008, 48 h, read-out: EC50 (compound concentration required to inhibit viral RNA replication by 50%)

| SMILES | EC50 [µM] | EC50 (Vero E6 cells, MOI 0.002, 2 days at 37° C., viral RNA in supernatant, logarithmic interpolation) [µM] | effect on replication of SARS-CoV-2 (Vero E6 cells, two days of culture) |
| --- | --- | --- | --- |
| CCC(CC)COC(=O)[C@H](C)N[P@](=O)(OC[C@H]1O[C@@](C#N)(c2ccc3c(N)ncnn23)[C@H](O)[C@@H]1O)Oc1ccccc1 [remdesivir] | 6.65 |  |  |
| COc1cccc(-c2ccc(NC(=O)C3=C(C(=O)O)CCC3)c(F)c2)c1 [Vidofludimus, 2-[[2-fluoro-4-(3-methoxyphenyl)phenyl]carbamoyl]cyclopentene-1-carboxylic acid] |  | 23.1 | can repress the replication of SARS-CoV-2 in a significant manner |
